{
  "source": "patent US11136349",
  "details": "other bond",
  "note": "Where two headings read alike, the source gives them in different places.",
  "data": [
    {"molecule": "CC(C)CC1CCC(=O)N[C@@H](Cc2ccccc2)C(=O)N[C@@H](CC(C)C)C(=O)N[C@@H](C)C(=O)N[C@@H](Cc2ccccc2)C(=O)N1C", "note": "(stereo partly drawn) [cyclo-[(Me)Aba(4-iBu)-Phe-Leu-Ala-Phe]]", "values": [
      {"measurement": "ring closure, conversion", "setting": "from acryloyl-Phe-Leu-Ala-Phe-MeLeu-OH, 17-membered ring, Ir[dF(CF3)ppy]2(dtbbpy)PF6/K2HPO4/blue LED, DMF, 5.0 mM", "value": 77, "unit": "%"}
    ]},
    {"molecule": "CC(C)C[C@@H]1NC(=O)[C@H](Cc2ccccc2)NC(=O)C(c2ccccc2)CCNC(=O)[C@H](Cc2ccccc2)NC(=O)[C@H](C)NC1=O", "note": "(stereo partly drawn) [cyclo-[Aba(2-Ph)-Phe-Le-Ala-Phe]]", "values": [
      {"measurement": "ring closure, conversion", "setting": "from α-phenylacryloyl-Phe-Leu-Ala-Phe-Gly-OH, 17-membered ring, Ir[dF(CF3)ppy]2(dtbbpy)PF6/K2HPO4/blue LED, DMF, 2.5 mM", "value": 95, "unit": "%"}
    ]},
    {"molecule": "CC(C)C[C@@H]1NC(=O)[C@H](Cc2ccc(OC(C)(C)C)cc2)NC(=O)[C@H](C(C)C)NC(=O)[C@H]([C@@H](C)OC(C)(C)C)NC(=O)[C@H](C)NC(=O)[C@@H]2CCCN2C(=O)[C@H](CC(C)C)NC(=O)[C@H](Cc2ccccc2)NC(=O)[C@H](C)NC(=O)CCCNC1=O", "note": "[cyclo-[Aba-Ala-Phe-Leu-Pro-Ala-Thr(tBu)-Val-Tyr(tBu)-Leu]]", "values": [
      {"measurement": "ring closure, conversion", "setting": "from acryloyl-Ala-Phe-Leu-Pro-Ala-Thr(tBu)-Val-Tyr(tBu)-Leu-Gly-OH, 32-membered ring, Ir[dF(CF3)ppy]2(dtbbpy)PF6/K2HPO4/blue LED, DMF, 2.5 mM", "value": 64, "unit": "%"}
    ]},
    {"molecule": "CC(C)[C@@H]1NC(=O)[C@H](Cc2ccc(OC(C)(C)C)cc2)NC(=O)[C@H](C)N(C)C(=O)[C@H](Cc2ccccc2)NC(=O)CCCNC1=O", "note": "[cyclo-[Aba-Phe-(Me)Ala-Tyr(tBu)-Val]]", "values": [
      {"measurement": "ring closure, conversion", "setting": "from acryloyl-Phe-MeAla-Tyr(tBu)-Val-Gly-OH, 17-membered ring, Ir[dF(CF3)ppy]2(dtbbpy)PF6/K2HPO4/blue LED, DMF, 5.0 mM", "value": 66, "unit": "%"}
    ]},
    {"molecule": "CC(C)C[C@@H]1NC(=O)[C@H](CCC(=O)NC(c2ccccc2)(c2ccccc2)c2ccccc2)NC(=O)[C@H](Cc2ccccc2)NC(=O)CCCNC(=O)[C@H](CCCCNC(=O)OC(C)(C)C)NC1=O", "note": "[cyclo-[Aba-Phe-Gln(Trt)-Leu-Lys(Boc)]]", "values": [
      {"measurement": "ring closure, conversion", "setting": "from acryloyl-Phe-Gln(Trt)-Leu-Lys(Boc)-Gly-OH, 17-membered ring, Ir[dF(CF3)ppy]2(dtbbpy)PF6/K2HPO4/blue LED, DMF, 2.5 mM", "value": 94, "unit": "%"}
    ]},
    {"molecule": "CC(C)C[C@@H]1NC(=O)[C@H](Cc2ccccc2)NC(=O)CCCNC(=O)[C@H](Cc2ccc(Br)cc2)NC(=O)[C@H](C)NC1=O", "note": "[cyclo-[Aba-Phe-Leu-Ai-Phe(4-Br)]]", "values": [
      {"measurement": "ring closure, conversion", "setting": "from acryloyl-Phe-Leu-Ala-Phe(4-Br)-Gly-OH, 17-membered ring, Ir[dF(CF3)ppy]2(dtbbpy)PF6/K2HPO4/TRIP-SH/blue LED, DMF, 2.5 mM", "value": 48, "unit": "%"}
    ]},
    {"molecule": "CC(C)C[C@@H]1NC(=O)[C@H](Cc2ccccc2)NC(=O)CCCNC(=O)[C@H](Cc2cn(C(c3ccccc3)(c3ccccc3)c3ccccc3)cn2)NC(=O)[C@H](C)NC1=O", "note": "[cyclo-[Aba-Phe-Leu-Ala-His(Trt)]]", "values": [
      {"measurement": "ring closure, conversion", "setting": "from acryloyl-Phe-Leu-Ala-His(Trt)-Gly-OH, 17-membered ring, Ir[dF(CF3)ppy]2(dtbbpy)PF6/K2HPO4/blue LED, DMF, 1.0 mM", "value": 65, "unit": "%"}
    ]},
    {"molecule": "CC(C)C[C@@H]1NC(=O)[C@H](CCC(=O)OC(C)(C)C)NC(=O)[C@@H]2CCCN2C(=O)[C@H](C)NC(=O)[C@H](Cc2ccccc2)NC(=O)CCCNC(=O)[C@H](C)NC(=O)[C@H](Cc2ccccc2)NC1=O", "note": "[cyclo-[Aba-Phe-Leu-Ala-Phe]]", "values": [
      {"measurement": "ring closure, conversion", "setting": "from acryloyl-Phe-Ala-Pro-Glu(OtBu)-Leu-Phe-Ala-Gly-OH, 26-membered ring, Ir[dF(CF3)ppy]2(dtbbpy)PF6/K2HPO4/blue LED, DMF, 5.0 mM", "value": 61, "unit": "%"}
    ]},
    {"molecule": "CC(C)C[C@@H]1NC(=O)[C@H](Cc2ccccc2)NC(=O)CCCNC(=O)[C@H](Cc2ccccc2)NC(=O)[C@H](C)NC1=O", "note": "[cyclo-[Aba-Phe-Leu-Ala-Phe]]", "values": [
      {"measurement": "ring closure, conversion", "setting": "from acryloyl-Phe-Leu-Ala-Phe-Gly-OH, 17-membered ring, Ir[dF(CF3)ppy]2(dtbbpy)PF6/K2HPO4/blue LED, DMF, 2.5 mM", "value": 93, "unit": "%"}
    ]},
    {"molecule": "CSCC[C@@H]1NC(=O)[C@H](Cc2ccccc2)NC(=O)CCCNC(=O)[C@H](CCC(=O)OC(C)(C)C)NC(=O)[C@H](CC(C)C)NC1=O", "note": "[cyclo-[Aba-Phe-Met-Leu-Glu(OtBu)]]", "values": [
      {"measurement": "ring closure, conversion", "setting": "from acryloyl-Phe-Met-Leu-Glu(tBu)-Gly-OH, 17-membered ring, Ir[dF(CF3)ppy]2(dtbbpy)PF6/K2HPO4/TRIP-SH/blue LED, DMF, 2.5 mM", "value": 40, "unit": "%"}
    ]},
    {"molecule": "C#CC[C@@H]1NC(=O)[C@H](Cc2ccccc2)NC(=O)CCCNC(=O)[C@H](CCCCNC(=O)OC(C)(C)C)NC(=O)[C@H](C)NC1=O", "note": "[cyclo-[Aba-Phe-Pra-Ala-Lys(Boc)]]", "values": [
      {"measurement": "ring closure, conversion", "setting": "from acryloyl-Phe-Pra-Ala-Lys(Boc)-Gly-OH, 17-membered ring, Ir[dF(CF3)ppy]2(dtbbpy)PF6/K2HPO4/blue LED, DMF, 5.0 mM", "value": 82, "unit": "%"}
    ]},
    {"molecule": "CC(C)[C@@H]1NC(=O)CCCNC(=O)[C@H](Cc2cn(C(=O)OC(C)(C)C)c3ccccc23)NC(=O)[C@H](Cc2ccccc2)NC(=O)[C@H]([C@@H](C)OC(C)(C)C)NC1=O", "note": "[cyclo-[Aba-Val-Thr(tBu)-Phe-Trp(Boc)]", "values": [
      {"measurement": "ring closure, conversion", "setting": "from acryloyl-Val-Thr(tBu)-Phe-Trp(Boc)-Gly-OH, 17-membered ring, Ir[dF(CF3)ppy]2(dtbbpy)PF6/K2HPO4/blue LED, DMF, 2.5 mM", "value": 56, "unit": "%"}
    ]},
    {"molecule": "C[C@@H]1NC(=O)CCCNC(=O)[C@H](Cc2ccc(OC(C)(C)C)cc2)NC1=O", "note": "[cyclo-[Aha-Ala-Tyr(tBu)]]", "values": [
      {"measurement": "ring closure, conversion", "setting": "from acryloyl-Ala-Tyr(tBu)-Gly-OH, 11-membered ring, Ir[dF(CF3)ppy]2(dtbbpy)PF6/K2HPO4/TRIP-SH/blue LED, DMF, 1.0 mM", "value": 24, "unit": "%"}
    ]},
    {"molecule": "C[C@@H]1NC(=O)[C@H](CCCNC(=NC(=O)OC(C)(C)C)NC(=O)OC(C)(C)C)NC(=O)[C@H](Cc2ccccc2)NC(=O)CCCNC(=O)[C@H](COC(C)(C)C)NC1=O", "note": "[cyclo-[Aha-Phe-Arg(Bo)2-Ser(tBu)-Ala]]", "values": [
      {"measurement": "ring closure, conversion", "setting": "from acryloyl-Phe-Arg(Boc)2-Ala-Ser(tBu)-Gly-OH, 17-membered ring, Ir[dF(CF3)ppy]2(dtbbpy)PF6/K2HPO4/TRIP-SH/blue LED, DMF, 2.5 mM", "value": 59, "unit": "%"}
    ]},
    {"molecule": "CC(C)C[C@@H]1NC(=O)[C@H](Cc2ccccc2)NC(=O)CCC(CCC(=O)O)NC(=O)[C@H](Cc2ccccc2)NC(=O)[C@H](C)NC1=O", "note": "(stereo partly drawn) [cyclo-[Ahda-Phe-Leu-Ala-Phe]]", "values": [
      {"measurement": "ring closure, conversion", "setting": "from acryloyl-Phe-Leu-Ala-Phe-Glu-OH, 17-membered ring, Ir[dF(CF3)ppy]2(dtbbpy)PF6/K2HPO4/blue LED, DMF, 2.5 mM", "value": 38, "unit": "%"}
    ]},
    {"molecule": "CC(C)C[C@@H]1NC(=O)[C@H](Cc2ccccc2)NC(=O)CCC2(CC2)NC(=O)[C@H](Cc2ccccc2)NC(=O)[C@H](C)NC1=O", "note": "[cyclo[(3-Ac)pa-Phe-Leu-Ala-Phe]]", "values": [
      {"measurement": "ring closure, conversion", "setting": "from acryloyl-Phe-Leu-Ala-Phe-Acc-OH, 17-membered ring, Ir[dF(CF3)ppy]2(dtbbpy)PF6/K2HPO4/blue LED, DMSO, 2.5 mM", "value": 48, "unit": "%"}
    ]},
    {"molecule": "CC(C)C[C@@H]1NC(=O)[C@H](Cc2ccccc2)NC(=O)CCC2(CCCC2)NC(=O)[C@H](Cc2ccccc2)NC(=O)[C@H](C)NC1=O", "note": "[cyclo[(3-Aep)pa-Phe-[Leu-Aa-Phe]]", "values": [
      {"measurement": "ring closure, conversion", "setting": "from acryloyl-Phe-Leu-Ala-Phe-Aepe-OH, 17-membered ring, Ir[dF(CF3)ppy]2(dtbbpy)PF6/K2HPO4/blue LED, DMSO, 2.5 mM", "value": 49, "unit": "%"}
    ]},
    {"molecule": "cyclo-[Aba-Ala-Leu-Pbe-Lys(Boc)-Pro-Ala-Phe-Ala-Leu-Pro-Glu(OBu)-Leu-Phe-VaI]", "values": [
      {"measurement": "ring closure, conversion", "setting": "47-membered ring, Ir[dF(CF3)ppy]2(dtbbpy)PF6/K2HPO4/blue LED, DMF, 0.25 mM", "value": 60, "unit": "%"}
    ]}
  ]
}
